From patent publication US11542313B2, “Incretin analogs and uses thereof” (Eli Lilly and Company, priority 2017, dated 2023)
Where two headings read alike, the source gives them in different places. *1 amine or outer side, *2 acyl side, *3 side chain or, on linkers, in order; H or OH if unused. Where a SMILES comes first, the peptide text is derived from it. Side-chain parts run from the residue outwards. [ ]: non-standard residue; d: D form. The star is where a group is joined. C20 diacid = O=C(O)CCCCCCCCCCCCCCCCCCC(=O)*; γGlu = O=C(O)[C@H](CCC(=O)[*:2])N[*:1]; αMeL = CC(C)C[C@](C)(N)C(=O)O; AEEA = NCCOCCOCC(=O)O; Aib = CC(C)(N)C(=O)O

How the values were obtained:
hGcgR = molecular target: T1, hGcgR (Homo sapiens, UniProt P47871); experiment: cAMP assay in HEK293 cells expressing hGcgR, 0.1% casein; type: cell-based; details: in the presence of 0.1% casein; read-out: cAMP EC50, GcGR
T1 construct: expressed in transfected cells; host or cells: HEK293

[1] = molecular target: T2, human glucagon receptor (GcgR) (Homo sapiens, UniProt P47871); experiment: Radioligand competition binding (SPA), human GcgR membranes
T2 construct: expressed in transfected cells; host or cells: HEK293 (membranes)
Excerpt: (§1) Radioligand competition binding assays are run to determine the equilibrium dissociation constant for exemplary compounds and comparator molecules.
(§2) Competition curves are plotted as the percent specific inhibition (y-axis) versus log concentration of compound (x-axis) and analyzed using a four parameter nonlinear regression fit with variable slope (ABase or Genedata).

hGLP-1R = hGLP-1R (Homo sapiens, UniProt P43220); experiment: cAMP assay in HEK293 cells expressing hGLP-1R, 0.1% casein; type: cell-based; details: in the presence of 0.1% casein; read-out: cAMP EC50, GLP-1R
GLP-1 receptor (GLP-1R) = molecular target: T3, GLP-1 receptor (GLP-1R) (Homo sapiens, UniProt P43220); experiment: Radioligand competition binding (SPA), human GLP-1R membranes
T3 construct: expressed in transfected cells; host or cells: HEK293 (membranes)
Excerpt: as §1, §2

hGIPR = molecular target: T4, hGIPR (Homo sapiens, UniProt P48546); experiment: cAMP assay in HEK293 cells expressing hGIPR, 0.1% casein; type: cell-based; details: in the presence of 0.1% casein; read-out: cAMP EC50, GIPR
T4 construct: expressed in transfected cells; host or cells: HEK293
T4 sequence (P48546 22-466): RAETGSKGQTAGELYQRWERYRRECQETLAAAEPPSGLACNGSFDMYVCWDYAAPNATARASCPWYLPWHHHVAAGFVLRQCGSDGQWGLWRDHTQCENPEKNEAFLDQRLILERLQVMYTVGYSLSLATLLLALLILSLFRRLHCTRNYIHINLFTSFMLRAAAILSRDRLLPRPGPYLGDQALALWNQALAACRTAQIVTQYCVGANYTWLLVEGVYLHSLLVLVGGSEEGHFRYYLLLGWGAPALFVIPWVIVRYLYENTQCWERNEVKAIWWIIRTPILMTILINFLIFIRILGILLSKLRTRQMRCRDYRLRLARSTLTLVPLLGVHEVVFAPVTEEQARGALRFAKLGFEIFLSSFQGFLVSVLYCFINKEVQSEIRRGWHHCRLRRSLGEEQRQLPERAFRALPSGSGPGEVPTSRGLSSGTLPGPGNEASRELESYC

[2] = molecular target: T5, human GIP receptor (GIPR) (Homo sapiens, UniProt P48546); experiment: Radioligand competition binding (SPA), human GIPR membranes
T5 construct: expressed in transfected cells; host or cells: HEK293 (membranes)
T5 sequence (P48546 22-466): T4 sequence (P48546 22-466)
Excerpt: as §1, §2

[3] = Pharmacokinetics in male Sprague Dawley rats; details: for CL/F / Tmax / half-life: male, Sprague-Dawley, rat, plasma, sc, 100 nmol/kg; for AUCINF_D_obs / Cmax/D: single subcutaneous 100 nMol/kg, male Sprague Dawley rats, n = 3
Protocol: The pharmacokinetics of the exemplary analogs are evaluated following a single subcutaneous administration of 100 nM/kg to male Sprague Dawley rats. Blood samples are collected over 120 hours, and resulting individual plasma concentrations are used to calculate pharmacokinetic parameters. Peptide plasma (K3 EDTA) concentrations are determined using a qualified LC/MS method that measured the intact mass of the analog. Each peptide and an analog as an internal standard are extracted from 100% specie specified plasma using methanol with 0.1% formic acid. A Thermo Q-Exactive, High Resolution Instrument, and a Thermo Easy Spray PepMap are combined for LC/MS detection.

[4] = HEK293 membranes, SPA, bacitracin present, mean, read-out: Ki, GcgR
[5] = HEK293 membranes, SPA, bacitracin present, mean, read-out: Ki, GLP-1R
[6] = HEK293 membranes, SPA, bacitracin present, mean, read-out: Ki, GIPR

T3 sequence (P43220 24-463): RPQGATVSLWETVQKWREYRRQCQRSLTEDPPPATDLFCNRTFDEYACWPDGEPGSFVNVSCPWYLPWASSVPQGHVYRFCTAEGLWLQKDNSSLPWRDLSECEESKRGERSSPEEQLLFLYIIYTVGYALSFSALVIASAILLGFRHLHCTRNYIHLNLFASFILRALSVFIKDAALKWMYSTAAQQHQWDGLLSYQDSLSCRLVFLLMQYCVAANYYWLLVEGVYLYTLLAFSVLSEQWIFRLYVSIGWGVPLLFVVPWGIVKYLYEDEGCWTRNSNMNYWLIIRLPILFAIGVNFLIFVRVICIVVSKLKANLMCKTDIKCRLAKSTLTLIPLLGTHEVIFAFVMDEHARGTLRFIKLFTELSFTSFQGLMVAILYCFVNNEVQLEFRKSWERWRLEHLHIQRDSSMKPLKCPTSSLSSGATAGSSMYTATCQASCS
T2 sequence (P47871 26-477): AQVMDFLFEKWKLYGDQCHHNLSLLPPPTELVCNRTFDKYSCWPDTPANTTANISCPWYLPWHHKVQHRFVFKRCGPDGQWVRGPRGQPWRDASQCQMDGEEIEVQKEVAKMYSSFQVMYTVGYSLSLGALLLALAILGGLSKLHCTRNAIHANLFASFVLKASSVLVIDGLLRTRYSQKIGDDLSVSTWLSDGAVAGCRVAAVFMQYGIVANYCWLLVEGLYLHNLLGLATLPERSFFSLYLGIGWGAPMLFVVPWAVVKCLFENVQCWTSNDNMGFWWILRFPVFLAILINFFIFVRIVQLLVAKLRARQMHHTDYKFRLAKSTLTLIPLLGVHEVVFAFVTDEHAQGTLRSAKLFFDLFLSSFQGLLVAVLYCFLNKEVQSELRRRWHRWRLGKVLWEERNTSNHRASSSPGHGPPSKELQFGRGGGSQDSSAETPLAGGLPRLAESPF
Sequence of hGLP-1R (P43220 24-463): as the sequence (P43220 24-463) above
T1 sequence (P47871 26-477): as the sequence (P47871 26-477) above

| Compound | EC50 (hGcgR) [nM] | Ki [1, 4] [nM] | EC50 (hGLP-1R) [nM] | Ki (GLP-1 receptor (GLP-1R); [5]) [nM] | EC50 (hGIPR) [nM] | Ki [2, 6] [nM] | CL/F [3] [mL/h/kg] | Tmax [3] [h] | half-life [3] [h] | AUCINF_D_obs [3] [hr*kg*nmol/L/nmol] | Cmax/D [3] [kg*nmol/L/nmol] | Ki [1] [nM] | Ki (GLP-1 receptor (GLP-1R)) [nM] | Ki [2] [nM] |
| --- | --- | --- | --- | --- | --- | --- | --- | --- | --- | --- | --- | --- | --- | --- |
| CC[C@H](C)[C@H](NC(=O)[C@H](Cc1ccccc1)NC(=O)[C@H](C)NC(=O)[C@H](Cc1c[nH]cn1)NC(=O)[C@H](CCC(N)=O)NC(=O)[C@H](C)NC(=O)[C@H](CCCCNC(=O)COCCOCCNC(=O)CC[C@H](NC(=O)CCCCCCCCCCCCCCCCCCC(=O)O)C(=O)O)NC(=O)[C@H](CCCCN)NC(=O)[C@H](CC(=O)O)NC(=O)[C@H](CC(C)C)NC(=O)[C@](C)(CC(C)C)NC(=O)[C@@H](NC(=O)[C@H](CO)NC(=O)[C@H](Cc1ccc(O)cc1)NC(=O)[C@H](CC(=O)O)NC(=O)[C@H](CO)NC(=O)[C@@H](NC(=O)[C@H](Cc1ccccc1)NC(=O)[C@@H](NC(=O)CNC(=O)[C@H](CCC(N)=O)NC(=O)C(C)(C)NC(=O)[C@@H](N)Cc1ccc(O)cc1)[C@@H](C)O)[C@@H](C)O)[C@@H](C)CC)C(=O)N[C@@H](CCC(=O)O)C(=O)N[C@@H](Cc1ccc(O)cc1)C(=O)N[C@@H](CC(C)C)C(=O)N[C@@H](CC(C)C)C(=O)N[C@@H](C)C(=O)NC(C)(C)C(=O)NCC(=O)N1CCC[C@H]1C(=O)N[C@@H](CO)C(=O)N[C@@H](CO)C(=O)NCC(=O)N[C@@H](C)C(=O)N1CCC[C@H]1C(=O)N1CCC[C@H]1C(=O)N1CCC[C@H]1C(=O)N[C@@H](CO)C(N)=O [Example 2] (H-Y[Aib]QGTFTSDYSI[αMeL]LDKK([AEEA-γGlu-C20 diacid])AQHAFIEYLLA[Aib]GPSSGAPPPS-NH2) | 0.0553 | 3.71 | 0.207 | 4.5 | 0.0474 | 0.0665 |  |  |  |  |  |  |  |  |
| CC[C@H](C)[C@H](NC(=O)[C@H](Cc1ccccc1)NC(=O)[C@H](C)NC(=O)[C@H](CCC(N)=O)NC(=O)[C@H](C)NC(=O)[C@H](C)NC(=O)[C@H](CCCCNC(=O)COCCOCCNC(=O)COCCOCCNC(=O)CC[C@H](NC(=O)CCCCCCCCCCCCCCCCCCC(=O)O)C(=O)O)NC(=O)[C@H](CCCCN)NC(=O)[C@H](CC(=O)O)NC(=O)[C@H](CC(C)C)NC(=O)[C@](C)(CC(C)C)NC(=O)[C@@H](NC(=O)[C@H](CO)NC(=O)[C@H](Cc1ccc(O)cc1)NC(=O)[C@H](CC(=O)O)NC(=O)[C@H](CO)NC(=O)[C@@H](NC(=O)[C@H](Cc1ccccc1)NC(=O)[C@@H](NC(=O)CNC(=O)[C@H](CCC(N)=O)NC(=O)C(C)(C)NC(=O)[C@@H](N)Cc1ccc(O)cc1)[C@@H](C)O)[C@@H](C)O)[C@@H](C)CC)C(=O)N[C@@H](CCC(=O)O)C(=O)N[C@@H](Cc1ccc(O)cc1)C(=O)N[C@@H](CC(C)C)C(=O)N[C@@H](CC(C)C)C(=O)N[C@@H](CCC(=O)O)C(=O)NC(C)(C)C(=O)NCC(=O)N1CCC[C@H]1C(=O)N[C@@H](CO)C(=O)N[C@@H](CO)C(=O)NCC(=O)N[C@@H](C)C(=O)N1CCC[C@H]1C(=O)N1CCC[C@H]1C(=O)N1CCC[C@H]1C(=O)N[C@@H](CO)C(N)=O [Example 5] (H-Y[Aib]QGTFTSDYSI[αMeL]LDKK([AEEA-AEEA-γGlu-C20 diacid])AAQAFIEYLLE[Aib]GPSSGAPPPS-NH2) | 0.0226 | 0.422 | 0.147 | 36.7 | 0.0757 | 0.179 |  |  |  |  |  |  |  |  |
| CC[C@H](C)[C@H](NC(=O)[C@H](Cc1ccccc1)NC(=O)[C@H](C)NC(=O)C(C)(C)NC(=O)[C@H](CCC(N)=O)NC(=O)[C@H](C)NC(=O)[C@H](CCCCNC(=O)COCCOCCNC(=O)COCCOCCNC(=O)CC[C@H](NC(=O)CCCCCCCCCCCCCCCCCCC(=O)O)C(=O)O)NC(=O)[C@H](CCCCN)NC(=O)[C@H](CC(=O)O)NC(=O)[C@H](CC(C)C)NC(=O)[C@](C)(CC(C)C)NC(=O)[C@@H](NC(=O)[C@H](CO)NC(=O)[C@H](Cc1ccc(O)cc1)NC(=O)[C@H](CC(=O)O)NC(=O)[C@H](CO)NC(=O)[C@@H](NC(=O)[C@H](Cc1ccccc1)NC(=O)[C@@H](NC(=O)CNC(=O)[C@H](CCC(N)=O)NC(=O)C(C)(C)NC(=O)[C@@H](N)Cc1ccc(O)cc1)[C@@H](C)O)[C@@H](C)O)[C@@H](C)CC)C(=O)N[C@@H](CCC(=O)O)C(=O)N[C@@H](Cc1ccc(O)cc1)C(=O)N[C@@H](CC(C)C)C(=O)N[C@@H](CC(C)C)C(=O)N[C@@H](CCC(=O)O)C(=O)NCC(=O)NCC(=O)N1CCC[C@H]1C(=O)N[C@@H](CO)C(=O)N[C@@H](CO)C(=O)NCC(=O)N[C@@H](C)C(=O)N1CCC[C@H]1C(=O)N1CCC[C@H]1C(=O)N1CCC[C@H]1C(=O)N[C@@H](CO)C(N)=O [Example 11] |  |  |  |  |  |  | 4.7 | 20 | 24.3 | 215.1 | 3.7 | 10.8 | 9.97 | 0.089 |
| CC[C@H](C)[C@H](NC(=O)[C@H](Cc1ccccc1)NC(=O)[C@H](C)NC(=O)C(C)(C)NC(=O)[C@H](CCC(N)=O)NC(=O)[C@H](C)NC(=O)[C@H](CCCCNC(=O)COCCOCCNC(=O)COCCOCCNC(=O)CC[C@H](NC(=O)CCCCCCCCCCCCCCCCCCC(=O)O)C(=O)O)NC(=O)[C@H](CCCCN)NC(=O)[C@H](CC(=O)O)NC(=O)[C@H](CC(C)C)NC(=O)[C@H](CC(C)C)NC(=O)[C@@H](NC(=O)[C@H](CO)NC(=O)[C@H](Cc1ccc(O)cc1)NC(=O)[C@H](CC(=O)O)NC(=O)[C@H](CO)NC(=O)[C@@H](NC(=O)[C@H](Cc1ccccc1)NC(=O)[C@@H](NC(=O)CNC(=O)[C@H](CCC(N)=O)NC(=O)C(C)(C)NC(=O)[C@@H](N)Cc1ccc(O)cc1)[C@@H](C)O)[C@@H](C)O)[C@@H](C)CC)C(=O)N[C@@H](CCC(=O)O)C(=O)N[C@@H](Cc1ccc(O)cc1)C(=O)N[C@@H](CC(C)C)C(=O)N[C@@H](CC(C)C)C(=O)N[C@@H](CCC(=O)O)C(=O)NCC(=O)NCC(=O)N1CCC[C@H]1C(=O)N[C@@H](CO)C(=O)N[C@@H](CO)C(=O)NCC(=O)N[C@@H](C)C(=O)N1CCC[C@H]1C(=O)N1CCC[C@H]1C(=O)N1CCC[C@H]1C(=O)N[C@@H](CO)C(N)=O [Example 16] |  |  |  |  |  |  | 3.6 | 20 | 29.1 | 274.9 | 3.8 | 11.5 | 16.1 | 0.106 |
| CC[C@H](C)[C@H](NC(=O)[C@H](Cc1ccccc1)NC(=O)[C@H](C)NC(=O)C(C)(C)NC(=O)[C@H](CCC(N)=O)NC(=O)[C@H](C)NC(=O)[C@H](CCCCNC(=O)COCCOCCNC(=O)CC[C@H](NC(=O)CCCCCCCCCCCCCCCCCCC(=O)O)C(=O)O)NC(=O)[C@H](CCCCN)NC(=O)[C@H](CC(=O)O)NC(=O)[C@H](CC(C)C)NC(=O)[C@H](CC(C)C)NC(=O)[C@@H](NC(=O)[C@H](CO)NC(=O)[C@H](Cc1ccc(O)cc1)NC(=O)[C@H](CC(=O)O)NC(=O)[C@H](CO)NC(=O)[C@@H](NC(=O)[C@H](Cc1ccccc1)NC(=O)[C@@H](NC(=O)CNC(=O)[C@H](CCC(N)=O)NC(=O)C(C)(C)NC(=O)[C@@H](N)Cc1ccc(O)cc1)[C@@H](C)O)[C@@H](C)O)[C@@H](C)CC)C(=O)N[C@@H](CCC(=O)O)C(=O)N[C@@H](Cc1ccc(O)cc1)C(=O)N[C@@H](CC(C)C)C(=O)N[C@@H](CC(C)C)C(=O)N[C@@H](CCC(=O)O)C(=O)NCC(=O)NCC(=O)N1CCC[C@H]1C(=O)N[C@@H](CO)C(=O)N[C@@H](CO)C(=O)NCC(=O)N[C@@H](C)C(=O)N1CCC[C@H]1C(=O)N1CCC[C@H]1C(=O)N1CCC[C@H]1C(=O)N[C@@H](CO)C(N)=O [Example 18] |  |  |  |  |  |  | 3.6 | 24 | 34.8 | 284.3 | 5.0 | 5.71 | 8.06 | 0.0835 |
